What was measured:
[1] = Obesity-associated factors in B16F10-isografted HFD C57BL/6J mice (body weight, blood glucose, serum lipids, ELISA); format: in vivo; conditions: end of experiment, mean ± SD
Text: C57BL/6J mice were procured from Experimental Animal Facility (EAF) at National Centre for Cell Science (NCCS), Pune, India. High fat diet (24% fat) was purchased from Provimi Animal Nutrition Pvt. Ltd., Bangalore, India, and normal diet (5% fat) was obtained from Amrut Laboratory, Pune, India. The compositions of diets are provided in supplementary data (Additional file 1: Table S1). Diet-induced obesity was developed in the mice by feeding them with high fat diet as described previously. Male C57BL/6J mice (6–8 weeks old) were divided into normal diet (ND) and high fat diet (HFD) group. ND group was fed with normal diet while HFD group was fed with high fat diet supplemented with ground nut and dried coconut for 6 months. Body weight and serum chemistry profile were measured monthly to verify obesity-associated changes. Water and food were provided ad libitum to all the mice. All animal experiments were carried out as per the requirement and guidelines of the Committee for the Purpose of Control and Supervision of Experiments on Animals (CPCSEA), Government of India, and after obtaining permission of the Institutional Animal Ethics Committee (IAEC).
Blood glucose levels and serum lipids were estimated as described previously. Insulin, leptin, and adiponectin levels in the serum were estimated by mouse-specific respective ELISA kits as described. Resistin, IL-6, and TNF-α levels in the serum were detected by indirect ELISA as described previously.
(§1) To study the impact of diet-induced obesity on the outcome of DTIC therapy in melanoma, we treated B16F10 melanoma isografted obese mice with DTIC purchased from Sigma, USA (80 mg/kg intraperitoneally for five consecutive days as described previously). In addition, to look into the impact of weight loss interventions on the outcome of DTIC therapy in obese mice, mice were administered with orlistat (an antiobesity drug known to inhibit gastrointestinal lipases) and/or shifted from high fat to normal diet followed by DTIC treatment. The detailed experimental plan is illustrated in Fig. 1a. Briefly, obese mice were administered orally with orlistat (10 mg/kg on every alternate day) purchased from Enzo Life Sciences, NY, USA, and/or shifted from high fat diet to normal diet. HFD C57BL/6J mice treated with vehicle or orlistat were termed as HFD-HFD Ctrl and HFD-HFD Orli (N = 11 per each group), respectively, whereas HFD C57BL/6J mice shifted to normal diet and treated with vehicle or orlistat were grouped as HFD-ND Ctrl and HFD-ND Orli (N = 11 per each group), respectively. After 15 days, these mice were injected subcutaneously (s.c.) with B16F10 cells (2 × 10^5) in 100 μl of PBS and monitored daily for the presence of palpable tumors and dimensions were recorded on alternate days. […] Tumor volume was calculated using the formula 0.52 × length × width^2 and was followed up throughout the study.

B16F10 melanoma = B16F10 melanoma isograft in HFD (obese) C57BL/6J mice: tumor growth and survival; format: in vivo
Protocol: as §1

B16F10 cells [2] = assay: Long-term survival assay, B16F10 cells in CM from 3T3-L1 cells; format: cell-based, Murine
Protocol: 3T3-L1 cells were plated in 35-mm dishes and differentiated as described, along with vehicle or orlistat treatment (50 μM).

[3] = tested on: FASN, P-gp, Cav-1, pAkt, PCNA, and cyclin D1; assay: Western blot of tumor lysates of B16F10-isografted mice; format: in vivo, C57BL/6J mice
Protocol: Melanoma tumor samples or cells were washed three to five times with ice-cold PBS and lysed in ice-cold RIPA lysis buffer as described previously. Briefly, the samples were centrifuged at 12000 RPM for 40 min and clear supernatants were stored at −80 °C. Protein concentrations were determined by Coomassie Plus Protein Assay Reagent (Thermo Scientific, IL, USA). Equal amounts of protein samples (50–100 μg) were resolved on 8–10% SDS-polyacrylamide gel and then transferred onto PVDF membrane (Millipore, MA, USA). […] After washing, the membranes were incubated with HRP-conjugated secondary antibodies (1:2000) and blots were developed using luminescence detection reagents (Santa Cruz Biotechnology, CA, USA).

metastatic melanoma = tested on: metastatic melanoma; set-up: method as in PMID 10840932; conditions: cited from earlier work
B16F10 cells [4] = assay: MTT assay, B16F10 cells grown in conditioned medium from 3T3-L1 cells; conditions: for IC50: Mus musculus, 10 days, DTIC 48 h, MTT
B16F10 cells [5] = assay: MTT assay, B16F10 cells grown in medium with 5% serum of ND or HFD mice; conditions: for IC50: Mus musculus, cells grown 10 days, DTIC 48 h, MTT
[6] = LC-MS/MS quantitation of DTIC in tumor, plasma, liver and adipose tissue
Protocol: The samples were introduced to the mass spectrometer through a reversed-phase column (Agilent ZORBAX SB-C18, 2.1 × 30 mm, 3.5 μm). The mobile phase containing water and acetonitrile with 0.1% formic acid was infused at a flow rate of 0.4 ml min^−1. The MS scan range was set between 100 and 1000 m/z, with the dry gas flow and dry gas temperature maintained at 6 L min^−1 and 320 °C, respectively. […] All the mass spectrometric data were acquired in positive ionization mode using Agilent MassHunter data acquisition software, version B.05.01. MassHunter Quantitative analysis software, version B.07.00 was used for the generation of calibration curves and subsequent quantitation of DTIC in the samples. Calibration curves were created using linear fitting, 1/x weighting and including the origin. Calibration standards (0.5–800 ng) were prepared using standard DTIC. All the samples including the standard DTIC preparations were spiked with leucine enkephalin (10 ng) as internal standard. […] The quantitation capability of this method is evaluated by using samples with known concentrations.

CN(C)/N=N/c1[nH]cnc1C(N)=O [DTIC, Dacarbazine]
Body weight ([1]; HFD-HFD (continued on HFD), orlistat 10 mg/kg oral alternate days, DTIC 80 mg/kg i.p. 5 days): 32.28 ± 1.70 (p = 0.999) g
Blood glucose ([1]; HFD-HFD): 194.50 ± 6.98 (p = 0.9997) mg/dl
Serum IL-6 ([1]; HFD-HFD): 44.99 ± 1.58 (p = 0.9999) pg/ml
Serum LDLc ([1]; HFD-HFD): 85.01 ± 1.17 (p = 0.9999) mg/dl
Serum TG ([1]; HFD-HFD): 84.17 ± 1.15 (p = 0.9999) mg/dl
Serum TNF-α ([1]; HFD-HFD): 28.67 ± 0.99 (p = 0.9708) pg/ml
Serum adiponectin ([1]; HFD-HFD): 3421 ± 198 (p = 0.9999) ng/ml
Serum cholesterol ([1]; HFD-HFD): 120.54 ± 4.49 (p = 0.9995) mg/dl
Serum free fatty acids ([1]; HFD-HFD): 2.20 ± 0.04 (p = 0.9993) mM/l
Serum insulin ([1]; HFD-HFD): 0.385 ± 0.016 (p = 0.8701) μg/l
Serum leptin ([1]; HFD-HFD): 43.11 ± 1.65 (p = 0.9999) ng/ml
Serum resistin ([1]; HFD-HFD): 2.23 ± 0.11 (p = 0.9999) ng/ml
Blood glucose ([1]; HFD-ND): 177.5 ± 5.05 (p = 0.0001) mg/dl
Serum IL-6 ([1]; HFD-ND): 35.59 ± 2.38 (p < 0.0001) pg/ml
Serum TG ([1]; HFD-ND): 69.15 ± 2.41 (p < 0.0001) mg/dl
Serum TNF-α ([1]; HFD-ND): 16.17 ± 1.91 (p < 0.0001) pg/ml
Serum adiponectin ([1]; HFD-ND): 5133 ± 228 (p < 0.0001) ng/ml
Serum free fatty acids ([1]; HFD-ND): 1.81 ± 0.05 (p < 0.0001) mM/l
Serum insulin ([1]; HFD-ND): 0.301 ± 0.02 (p < 0.0001) μg/l
Serum leptin ([1]; HFD-ND): 34.54 ± 2.3 (p < 0.0001) ng/ml
Serum resistin ([1]; HFD-ND): 1.82 ± 0.10 (p < 0.0001) ng/ml
Survivability of tumor-bearing mice (B16F10 melanoma; HFD mice): 60 days
Survival of tumor-bearing mice (B16F10 melanoma; HFD mice): reduced
Survivability increase (B16F10 melanoma; tumor-bearing HFD mice under weight control by orlistat treatment or diet shifting, DTIC therapy): 40%
Effect on survival (B16F10 cells [2]; CM from differentiated ID adipocytes): did not remarkably affect
Improvement of sensitivity to DTIC (B16F10 cells [2]; CM from differentiated adipocytes, simultaneous treatment with all three inhibitors (FASN, Cav-1, P-gp)): approximately 80%
Survival remaining (B16F10 cells [2]; CM from orlistat-treated differentiating adipocytes, DTIC at 649 μM): approximately 30%
Level of P-gp in tumors ([3]; HFD mice): further increased
Protein levels of cyclin D1 and PCNA in tumors ([3]; HFD mice): increase
Cav-1 levels in tumors ([3]; HFD mice treated with DTIC): elevated
FASN level in tumors ([3]; HFD mice treated with DTIC): further increased
Level of P-gp in tumors ([3]; ND mice): reduced
Protein levels of cyclin D1 and PCNA in tumors ([3]; ND mice): reduced levels
FASN and Cav-1 level in tumors ([3]; ND mice treated with DTIC): much lower
Overall response rate (metastatic melanoma): 20–25%
Increase of concentration for 50% cell killing, CM of differentiated adipocytes vs preadipocytes (B16F10 cells [4]; B16F10 cells): ~ 5 fold
IC50 (B16F10 cells [4]; B16-F10, CM from differentiated adipocytes (ID)): 3.25 mM
IC50 (B16F10 cells [4]; B16-F10, CM from undifferentiated preadipocytes (PA)): 0.649 mM
Increase of IC50 in HFD serum vs ND serum (B16F10 cells [5]; B16F10 cells): ~ 5 fold
IC50 (B16F10 cells [5]; B16-F10, HFD serum (5%)): 6.69 mM
IC50 (B16F10 cells [5]; B16-F10, ND serum (5%)): 1.42 mM
DTIC level in the plasma, liver, and adipose tissue ([6]; HFD mice compared to ND mice): higher
Level of DTIC in tumors from HFD mice, fold less than in ND counterparts ([6]; tumor, mass spectrometry): ~ 6 fold

— PMC5142287, “Weight control interventions improve therapeutic efficacy of dacarbazine in melanoma by reversing obesity-induced drug resistance” (Cancer & Metabolism, 2016)
